{"source": "paper PMC2567432", "about": "(PLoS ONE, 2008)", "test_system": "astrocytoma 1321N1 cells", "test": "D-lactate release into medium", "assay_type": "cell-based", "conditions": "1321N1, 20 µM curcumin, 24 h; control 34.6±6 µM", "procedure": "Cells were harvested and the specific activity of Glo1 and LDH was determined in the cytosolic extract. (B) Semi-quantitative analysis of protein content as performed by Western blot using specific antibodies against β-actin and Glo1. The blot was developed by chemoluminescense detection. […] Data represent the mean±S.D. of independent experiments (n = 6).\nThe determination of D-lactate and L-lactate in supernatants of astrocytoma 1321N1 cells was performed by an enzymatic method based on the oxidation of L-lactate and D-lactate to pyruvate by NAD in the presence of L-LDH or D-LDH[63].", "data": [{"compound": "COc1cc(C=CC(=O)CC(=O)C=Cc2ccc(O)c(OC)c2)ccc1O", "note": "[curcumin, 1,7-bis(4-hydroxy-3-methoxyphenyl)-1,6-heptadiene-3,5-dione]", "values": [{"measurement": "D-lactate concentration in the medium", "result": "22 ± 1.9", "unit": "µM"}]}]}
